Article PMC4594927 (PLoS ONE, 2015)

Key:
MtbIMPDH2ΔCBS [1] = molecular target: T1, MtbIMPDH2ΔCBS (Mycobacterium tuberculosis, UniProt P9WKI7, DEL126-250/R252G); format: biochemical
MtbIMPDH2ΔCBS [2] = molecular target: T1, MtbIMPDH2ΔCBS; format: biochemical; remark: listed apart in the source

NC(=O)c1ccc[n+]([C@@H]2O[C@H](COP(=O)([O-])OP(=O)(O)OC[C@H]3O[C@@H](n4cnc5c(N)ncnc54)[C@H](O)[C@@H]3O)[C@@H](O)[C@H]2O)c1 [NAD+]
Kii (NAD+) (MtbIMPDH2ΔCBS [1]): 16 ± 1 mM

C=C(C)c1cccc(C(C)(C)NC(=O)Nc2ccc(Cl)c(C(=O)N(C)C)c2)c1 [P41]
mechanism of inhibition vs. IMP (MtbIMPDH2ΔCBS [2]): 9 ± 4 (UC) | mechanism of inhibition vs. NAD^+ (MtbIMPDH2ΔCBS [2]): 13 ± 4 (NC) | mechanism of inhibition with respect to IMP (MtbIMPDH2ΔCBS [2]): uncompetitive | mechanism of inhibition with respect to NAD+ (MtbIMPDH2ΔCBS [2]): noncompetitive

C[C@H](Nc1cccc(Cl)c1Cl)C(=O)Nc1ccc2oc(-c3ccncc3)nc2c1 [Q67]
mechanism of inhibition vs. IMP (MtbIMPDH2ΔCBS [2]): 17 ± 9 (UC) | mechanism of inhibition vs. NAD^+ (MtbIMPDH2ΔCBS [2]): 7 ± 7 (C) | mechanism of inhibition with respect to IMP (MtbIMPDH2ΔCBS [2]): uncompetitive | mechanism of inhibition with respect to NAD+ (MtbIMPDH2ΔCBS [2]): competitive

COc1c(C)c2c(c(O)c1C/C=C(\C)Cn1cc(COC[C@H]3O[C@@H](n4cnc5c(N)ncnc54)[C@H](O)[C@@H]3O)nn1)C(=O)OC2 [MAD1, reference compound]
mechanism of inhibition vs. IMP (MtbIMPDH2ΔCBS [2]): 1000 ± 50 (UC) | mechanism of inhibition vs. NAD^+ (MtbIMPDH2ΔCBS [2]): 1400 ± 100 (UC) | mechanism of inhibition with respect to IMP (MtbIMPDH2ΔCBS [2]): uncompetitive | mechanism of inhibition with respect to NAD+ (MtbIMPDH2ΔCBS [2]): uncompetitive
